Data: the OligoGym collection
HELM strings list units from the 5' end as sugar, base in round brackets, then linkage (d deoxyribose, r ribose, m 2'-O-methyl, p phosphodiester). Strings are as the collection lists them; they lack the last nucleoside at the 3' end of the tested compound. [moe] = 2'-O-(2-methoxyethyl) (MOE); [sp] = phosphorothioate linkage; [m5C] = 5-methylcytosine

Target: UBE3A-ATS
Test: mouse, dose not given
Conditions: ASO

Substance | 3 h FOB score [score 0-7]
RNA1{[moe](G)[sp].[moe](T)p.[moe](G)p.[moe]([m5C])[sp].d(A)[sp].d(T)[sp].d(A)[sp].d([m5C])[sp].d([m5C])[sp].d([m5C])[sp].d(A)[sp].d(G)[sp].[moe](G)p.[moe](G)p.[moe](T)p.[moe](A)[sp].[moe](G)}$$$$ (last 3' nucleoside missing) | 1
RNA1{[moe](T)[sp].[moe](G)p.[moe](G)p.[moe]([m5C])p.[moe](T)p.d(T)[sp].d(T)[sp].d(A)[sp].d(T)[sp].d(A)[sp].d([m5C])[sp].d(T)[sp].d(T)[sp].d(T)[sp].d(A)[sp].[moe]([m5C])p.[moe]([m5C])p.[moe]([m5C])[sp].[moe](A)}$$$$ (last 3' nucleoside missing) | 0.7
RNA1{[moe](G)[sp].[moe](G)p.[moe](G)p.[moe]([m5C])p.[moe](A)p.d(A)[sp].d(A)[sp].d(A)[sp].d(A)[sp].d(T)[sp].d(A)[sp].d(G)[sp].d([m5C])[sp].d(A)[sp].d(A)[sp].[moe]([m5C])p.[moe](A)p.[moe](T)[sp].[moe](A)}$$$$ (last 3' nucleoside missing) | 5.8
RNA1{[moe](T)[sp].[moe](T)p.[moe](T)p.[moe](G)p.[moe](G)p.d(T)[sp].d(A)[sp].d(T)[sp].d(T)[sp].d(G)[sp].d(A)[sp].d([m5C])[sp].d(A)[sp].d([m5C])[sp].d([m5C])[sp].[moe](T)p.[moe]([m5C])p.[moe]([m5C])[sp].[moe](A)}$$$$ (last 3' nucleoside missing) | 3.7
RNA1{[moe](T)[sp].[moe](T)p.[moe]([m5C])p.[moe](A)p.d([m5C])[sp].d([m5C])[sp].d(A)[sp].d(T)[sp].d(T)[sp].d(T)[sp].d(T)[sp].d(G)[sp].d(A)[sp].d([m5C])[sp].[moe]([m5C])p.[moe](T)p.[moe](T)p.[moe]([m5C])[sp].[moe](T)}$$$$ (last 3' nucleoside missing) | 1
RNA1{[moe]([m5C])[sp].[moe](A)p.[moe](T)p.[moe](G)p.[moe](T)p.d(G)[sp].d(G)[sp].d(G)[sp].d([m5C])[sp].d([m5C])[sp].d(T)[sp].d([m5C])[sp].d(T)[sp].d(A)[sp].d(T)[sp].[moe](T)p.[moe](A)p.[moe](A)[sp].[moe](G)}$$$$ (last 3' nucleoside missing) | 4
RNA1{[moe](A)[sp].[moe](G)p.[moe](T)p.[moe]([m5C])p.[moe](T)p.d(T)[sp].d([m5C])[sp].d(A)[sp].d(T)[sp].d(T)[sp].d(A)[sp].d(T)[sp].d(T)[sp].d([m5C])[sp].d(T)[sp].[moe]([m5C])p.[moe](T)p.[moe](A)[sp].[moe](G)}$$$$ (last 3' nucleoside missing) | 1
RNA1{[moe](A)[sp].[moe](T)[sp].[moe]([m5C])[sp].[moe](A)[sp].[moe](T)[sp].d(G)[sp].d(T)[sp].d(G)[sp].d([m5C])[sp].d(A)[sp].d(T)[sp].d(A)[sp].d([m5C])[sp].d([m5C])[sp].d([m5C])[sp].[moe](A)[sp].[moe](G)[sp].[moe](G)[sp].[moe](G)}$$$$ (last 3' nucleoside missing) | 5.2
RNA1{[moe](G)[sp].[moe](T)p.[moe](A)p.[moe](T)p.[moe]([m5C])p.d(A)[sp].d(G)[sp].d(G)[sp].d([m5C])[sp].d(A)[sp].d(A)[sp].d([m5C])[sp].d(A)[sp].d(G)[sp].d(A)[sp].[moe](A)p.[moe](T)p.[moe]([m5C])[sp].[moe](T)}$$$$ (last 3' nucleoside missing) | 4.3
RNA1{[moe](T)[sp].[moe](T)p.[moe](T)p.[moe](A)p.[moe](G)p.d(G)[sp].d(T)[sp].d([m5C])[sp].d(A)[sp].d(A)[sp].d([m5C])[sp].d([m5C])[sp].d(A)[sp].d(A)[sp].d(T)[sp].[moe](T)p.[moe](T)p.[moe](G)[sp].[moe]([m5C])}$$$$ (last 3' nucleoside missing) | 0
RNA1{[moe](T)[sp].[moe](G)p.[moe](A)p.[moe](G)p.[moe]([m5C])p.[moe](T)[sp].d(A)[sp].d(T)[sp].d([m5C])[sp].d(T)[sp].d(G)[sp].d(T)[sp].d(A)[sp].d([m5C])[sp].[moe](A)p.[moe](A)[sp].[moe](A)}$$$$ (last 3' nucleoside missing) | 5
RNA1{[moe](A)[sp].[moe](T)p.[moe]([m5C])p.[moe](A)p.[moe](G)p.d(G)[sp].d(G)[sp].d([m5C])[sp].d(A)[sp].d([m5C])[sp].d(A)[sp].d(T)[sp].d(G)[sp].d(G)[sp].d(A)[sp].[moe](G)p.[moe](T)p.[moe](T)[sp].[moe](G)}$$$$ (last 3' nucleoside missing) | 6.8
RNA1{[moe](A)[sp].[moe]([m5C])p.[moe](A)p.[moe](T)p.[moe](A)p.d([m5C])[sp].d(T)[sp].d(T)[sp].d(G)[sp].d(G)[sp].d(T)[sp].d(T)[sp].d(G)[sp].d([m5C])[sp].d(A)[sp].[moe](G)p.[moe](A)p.[moe]([m5C])[sp].[moe](G)}$$$$ (last 3' nucleoside missing) | 4.8
RNA1{[moe](G)[sp].[moe]([m5C])p.[moe](T)p.[moe](G)p.[moe](A)p.[moe](T)[sp].d([m5C])[sp].d(A)[sp].d([m5C])[sp].d(A)[sp].d(T)[sp].d(T)[sp].d(A)[sp].d([m5C])[sp].[moe]([m5C])p.[moe]([m5C])[sp].[moe](A)}$$$$ (last 3' nucleoside missing) | 0
RNA1{[moe](T)[sp].[moe](T)p.[moe]([m5C])p.[moe](T)p.[moe](T)p.d(G)[sp].d([m5C])[sp].d(T)[sp].d(G)[sp].d(A)[sp].d(T)[sp].d([m5C])[sp].d(A)[sp].d([m5C])[sp].d(A)[sp].[moe](T)p.[moe](T)p.[moe](A)[sp].[moe]([m5C])}$$$$ (last 3' nucleoside missing) | 0
RNA1{[moe](G)[sp].[moe](T)p.[moe](G)p.[moe](T)p.[moe](T)p.d(T)[sp].d(T)[sp].d(T)[sp].d([m5C])[sp].d([m5C])[sp].d(A)[sp].d(T)[sp].d(T)[sp].d(T)[sp].d(T)[sp].[moe](T)p.[moe]([m5C])p.[moe](T)[sp].[moe]([m5C])}$$$$ (last 3' nucleoside missing) | 0
RNA1{[moe](G)[sp].[moe](G)p.[moe]([m5C])p.[moe](T)p.[moe](T)p.d(T)[sp].d(A)[sp].d(T)[sp].d(A)[sp].d([m5C])[sp].d(T)[sp].d(T)[sp].d(T)[sp].d(A)[sp].d([m5C])[sp].[moe]([m5C])p.[moe]([m5C])p.[moe](A)[sp].[moe](A)}$$$$ (last 3' nucleoside missing) | 1
RNA1{[moe](T)[sp].[moe](A)p.[moe](A)p.[moe](G)p.[moe](G)p.d(T)[sp].d([m5C])[sp].d(T)[sp].d(G)[sp].d(T)[sp].d(T)[sp].d(A)[sp].d(T)[sp].d(T)[sp].d([m5C])[sp].[moe](T)p.[moe]([m5C])p.[moe]([m5C])[sp].[moe]([m5C])}$$$$ (last 3' nucleoside missing) | 0.8
RNA1{[moe](G)[sp].[moe](A)p.[moe](G)p.[moe](T)p.[moe](A)p.d(G)[sp].d(T)[sp].d([m5C])[sp].d(T)[sp].d(A)[sp].d(T)[sp].d(T)[sp].d(G)[sp].d(G)[sp].d(T)[sp].[moe](G)p.[moe](T)p.[moe](T)[sp].[moe]([m5C])}$$$$ (last 3' nucleoside missing) | 5.5
RNA1{[moe](A)[sp].[moe]([m5C])p.[moe](T)p.[moe](G)p.[moe]([m5C])p.d(T)[sp].d(T)[sp].d([m5C])[sp].d(A)[sp].d([m5C])[sp].d([m5C])[sp].d(A)[sp].d(T)[sp].d(T)[sp].d(T)[sp].[moe](T)p.[moe](G)p.[moe](A)[sp].[moe]([m5C])}$$$$ (last 3' nucleoside missing) | 1.7
RNA1{[moe](T)[sp].[moe](T)p.[moe](G)p.[moe](G)p.d(T)[sp].d([m5C])[sp].d(A)[sp].d(T)[sp].d([m5C])[sp].d(T)[sp].d([m5C])[sp].d(G)[sp].d(G)[sp].d(G)[sp].[moe](T)p.[moe](A)p.[moe](T)p.[moe](A)[sp].[moe](T)}$$$$ (last 3' nucleoside missing) | 4
RNA1{[moe](T)[sp].[moe](T)p.[moe](A)p.[moe](T)p.[moe](A)p.d(G)[sp].d(G)[sp].d(G)[sp].d(T)[sp].d(G)[sp].d(G)[sp].d(T)[sp].d(T)[sp].d(G)[sp].d(G)[sp].[moe](T)p.[moe](T)p.[moe]([m5C])[sp].[moe](A)}$$$$ (last 3' nucleoside missing) | 7
RNA1{[moe](G)[sp].[moe](T)p.[moe](A)p.[moe](G)p.[moe]([m5C])p.d(T)[sp].d(A)[sp].d(T)[sp].d(A)[sp].d(G)[sp].d(G)[sp].d(T)[sp].d(G)[sp].d(T)[sp].d([m5C])[sp].[moe](A)p.[moe]([m5C])p.[moe](A)[sp].[moe](T)}$$$$ (last 3' nucleoside missing) | 6.2
RNA1{[moe](T)[sp].[moe]([m5C])p.[moe](A)p.[moe](A)p.[moe]([m5C])p.d([m5C])[sp].d(A)[sp].d(A)[sp].d(T)[sp].d(T)[sp].d(T)[sp].d(G)[sp].d([m5C])[sp].d(T)[sp].d(A)[sp].[moe](T)p.[moe](T)p.[moe]([m5C])[sp].[moe](A)}$$$$ (last 3' nucleoside missing) | 2
RNA1{[moe](T)[sp].[moe](T)p.[moe](G)p.[moe](G)p.[moe]([m5C])p.d(T)[sp].d(T)[sp].d(T)[sp].d(A)[sp].d(T)[sp].d(A)[sp].d([m5C])[sp].d(T)[sp].d(T)[sp].d(T)[sp].[moe](A)p.[moe]([m5C])p.[moe]([m5C])[sp].[moe]([m5C])}$$$$ (last 3' nucleoside missing) | 1
RNA1{[moe]([m5C])[sp].[moe](G)p.[moe](T)p.[moe](G)p.[moe](A)p.[moe](G)p.d([m5C])[sp].d(T)[sp].d(A)[sp].d(T)[sp].d([m5C])[sp].d(T)[sp].d(G)[sp].d(T)[sp].d(A)[sp].d([m5C])[sp].[moe](A)p.[moe](A)[sp].[moe](A)}$$$$ (last 3' nucleoside missing) | 1
